Source: patent US9868692B2, “Compounds and compositions for intracellular delivery of therapeutic agents” (MODERNATX, Inc., priority 2015, dated 2018)

Legend:
[1] = Particle size, polydispersity index (and zeta potential) of nanoparticle compositions, Zetasizer Nano ZS; format: physicochemical; settings: Table 1A formulations
Excerpt: Nanoparticle compositions may be characterized by a variety of methods. For example, microscopy (e.g., transmission electron microscopy or scanning electron microscopy) may be used to examine the morphology and size distribution of a nanoparticle composition. Dynamic light scattering or potentiometry (e.g., potentiometric titrations) may be used to measure zeta potentials. Dynamic light scattering may also be utilized to determine particle sizes. Instruments such as the Zetasizer Nano ZS (Malvern Instruments Ltd, Malvern, Worcestershire, UK) may also be used to measure multiple characteristics of a nanoparticle composition, such as particle size, polydispersity index, and zeta potential.
A Zetasizer Nano ZS (Malvern Instruments Ltd, Malvern, Worcestershire, UK) can be used to determine the particle size, the polydispersity index (PDI) and the zeta potential of the nanoparticle compositions in 1×PBS in determining particle size and 15 mM PBS in determining zeta potential.

[2] = Encapsulation efficiency of RNA, QUANT-IT RIBOGREEN RNA assay; format: physicochemical; settings: Table 1A formulations
Excerpt: The efficiency of encapsulation of a therapeutic and/or prophylactic describes the amount of therapeutic and/or prophylactic that is encapsulated or otherwise associated with a nanoparticle composition after preparation, relative to the initial amount provided. The encapsulation efficiency is desirably high (e.g., close to 100%). The encapsulation efficiency may be measured, for example, by comparing the amount of therapeutic and/or prophylactic in a solution containing the nanoparticle composition before and after breaking up the nanoparticle composition with one or more organic solvents or detergents. Fluorescence may be used to measure the amount of free therapeutic and/or prophylactic (e.g., RNA) in a solution. For the nanoparticle compositions described herein, the encapsulation efficiency of a therapeutic and/or prophylactic may be at least 50%, for example 50%, 55%, 60%, 65%, 70%, 75%, 80%, 85%, 90%, 91%, 92%, 93%, 94%, 95%, 96%, 97%, 98%, 99%, or 100%. In some embodiments, the encapsulation efficiency may be at least 80%. In certain embodiments, the encapsulation efficiency may be at least 90%.
For nanoparticle compositions including an RNA, a QUANT-IT™ RIBOGREEN® RNA assay (Invitrogen Corporation Carlsbad, Calif.) can be used to evaluate the encapsulation of an RNA by the nanoparticle composition. The samples are diluted to a concentration of approximately 5 μg/mL in a TE buffer solution (10 mM Tris-HCl, 1 mM EDTA, pH 7.5). 50 μL of the diluted samples are transferred to a polystyrene 96 well plate and either 50 μL of TE buffer or 50 μL of a 2% Triton X-100 solution is added to the wells. The plate is incubated at a temperature of 37° C. for 15 minutes. The RIBOGREEN® reagent is diluted 1:100 in TE buffer, and 100 μL of this solution is added to each well. The fluorescence intensity can be measured using a fluorescence plate reader (Wallac Victor 1420 Multilablel Counter; Perkin Elmer, Waltham, Mass.) at an excitation wavelength of, for example, about 480 nm and an emission wavelength of, for example, about 520 nm. The fluorescence values of the reagent blank are subtracted from that of each of the samples and the percentage of free RNA is determined by dividing the fluorescence intensity of the intact sample (without addition of Triton X-100) by the fluorescence value of the disrupted sample (caused by the addition of Triton X-100).

[3] = Residual lipid level in liver of rats (UPLC-MS quantification); format: in vivo; settings: rat, liver, iv, intravenous, 48 hours, read-out: Liver level
Method: (§1) To pre-weighed tissues, Milli-Q water was added (900 μL water per 100 mg tissue). Tissues were homogenized using an Omni probe homogenizer until uniform. 50 μL of samples and matrix calibration standards were aliquoted into a 96-well plate. 50 μL of blank matrix for matrix blanks and control blanks were aliquoted. 400 μL IS spiking solution were manually added to all samples except matrix blanks. 400 μL of 50:50 ACN:IPA were manually added to matrix blanks. The plate was covered and the samples vortexed and centrifuged for 5 minutes at >3000 rpm. 200 μL of the samples were transferred into a clean 96-well plate for analysis. […] Detection was based on electrospray ionization (ESI) in positive mode using a Sciex API5500 Mass Spectrometer.
(§2) The expression of hEPO in rats intravenously administered a nanoparticle composition at a dose of 0.2 mpk or 2.0 mpk was measured at 6 hours. […] Liver and spleen levels represent the average values calculated for 3 rats in each group.
(§3) The expression of hEPO and lipid levels in the liver and spleen in rats intravenously administered a nanoparticle composition at a dose of 0.2 mpk was measured at various timepoints. […] Lipids were formulated according to the standard MC3 formulation described above.

[4] = Residual lipid level in spleen of rats (UPLC-MS quantification); format: in vivo; settings: rat, iv, 48 hours, read-out: Spleen level
Method: as §1, §2, §3

[5] = Lipid clearance: % dose remaining in liver after administration of Luc formulations; format: in vivo, mice; settings: Table 3D

Row | PDI [1] | EE (%) [2] [%] | % Dose Remaining in Liver 6h ([5]; first column of this head) [%] | % Dose Remaining in Liver 6h ([5]; second column of this head) [%] | further results | Structure (SMILES)
1 | 0.110 | 96.86 | – | – | concentration at 48 h ([3]; 0.2 mg/kg, 0.2 mpk): 6490 ng/g; concentration at 48 h ([3]; 2 mg/kg, 2 mpk): 61400 ng/g; concentration at 48 h ([4]; 0.2 mg/kg, 0.2 mpk): 0.36; concentration at 48 h ([4]; 2 mg/kg, 2 mpk): 0.37 | CCCCCCCCC(CC)OC(=O)CCCCCCCN(CCO)CCCCCCCC(=O)OC(CCCCCCCC)CCCCCCCC (stereo not drawn) [Compound 49, heptadecan-9-yl 8-((2-hydroxyethyl)(8-oxo-8-(undecan-3-yloxy)octyl)amino)octanoate]
2 | 0.11 | 97.3 | – | – | – | CCCCCCCCC(CC)OC(=O)CCCN(CCO)CCCCCCCC(=O)OC(CCCCCCCC)CCCCCCCC (stereo not drawn) [Compound 72, Heptadecan-9-yl 8-((2-hydroxyethyl)(4-oxo-4-(undecan-3-yloxy)butyl)amino)octanoate]
3 | 0.10 | 98.1 | – | – | – | CCCCCCCCC(CC)OC(=O)CCCCCN(CCO)CCCCCCCC(=O)OC(CCCCCCCC)CCCCCCCC (stereo not drawn) [Compound 75, Heptadecan-9-yl 8-((2-hydroxyethyl)(6-oxo-6-(undecan-3-yloxy)hexyl)amino)octanoate]
4 | – | – | <1 | <1 | – | CCCCCCCCCC(=O)OCCCCCCCN(CCO)CCCCCCCC(=O)OC(CCCCCCCC)CCCCCCCC [Compound 96, 7-((8-(Heptadecan-9-yloxy)-8-oxooctyl)(2-hydroxyethyl)amino)heptyl decanoate]
5 | 0.13 | 97.4 | – | – | – | CCCCCCCCCOC(=O)CCCCCCCN(CCCCCCCC(=O)OC(CCCCCCCC)CCCCCCCC)CCCNC(=O)N(C)C [Compound 110, Heptadecan-9-yl 8-((3-(3,3-dimethylureido)propyl)(8-(nonyloxy)-8-oxooctyl)amino)octanoate]
6 | 0.14 | 98.2 | – | – | – | CCCCCCCCCOC(=O)CCCCCCCN(CCCCCCCC(=O)OC(CCCCCCCC)CCCCCCCC)CCCNC(=S)N(C)C [Compound 111, Heptadecan-9-yl 8-((3-(3,3-dimethylthioureido)propyl)(8-(nonyloxy)-8-oxooctyl)amino)octanoate]
7 | 0.15 | 99 | – | – | – | CCCCCCCCCOC(=O)CCCCCCCN(CCCCCCCC(=O)OC(CCCCCCCC)CCCCCCCC)CCCNC(=S)NC [Compound 113, Heptadecan-9-yl 8-((3-(3-methylthioureido)propyl)(8-(nonyloxy)-8-oxooctyl)amino)octanoate]
8 | 0.14 | 98.2 | – | – | – | CCCCCCCCC(CCCCCCCC)OC(=O)CCCCCCCN(CCO)CCCCCC(=O)OC(CCCCCCCC)C1CC1 (stereo not drawn) [Compound 128, Heptadecan-9-yl 8-((6-((1-cyclopropylnonyl)oxy)-6-oxohexyl)(2-hydroxyethyl)amino)octanoate]
9 | – | – | <1 | <1 | – | CCCCCCCCC(CCCCCCCC)OC(=O)CCCCCCCN(CCO)CCCCCCCC(=O)OCC(CCCCCCC)OC (stereo not drawn) [Compound 148, Heptadecan-9-yl 8-((2-hydroxyethyl)(8-((2-methoxynonyl)oxy)-8-oxooctyl)amino)octanoate]
10 | – | – | <1 | <1 | – | CCCCCCCCC(CCCCCCCC)OC(=O)CCCCCCCN(C)CCCCCCCCCCCC(=O)OCCCCC [Compound 150, Pentyl 12-((8-(heptadecan-9-yloxy)-8-oxooctyl)(methyl)amino)dodecanoate]
11 | – | – | <1 | <1 | – | CCCCCCCCCC(=O)OCCCCCCCN(CCO)CCCCCCCOC(=O)C(CCCCCCCC)CCCCCCCC [Compound 151, 7-((7-(Decanoyloxy)heptyl)(2-hydroxyethyl)amino)heptyl 2-octyldecanoate]
12 | – | – | <1 | <1 | – | CCCCCCCCCOC(=O)CCCCCCCN(CCO)CCCCCCCCCC(CCCCCCCC)CCCCCCCC [Compound 153, Nonyl 8-((2-hydroxyethyl)(10-octyloctadecyl)amino)octanoate]
13 | 0.072 | 98.90 | – | – | – | CCCCCCCCCOC(=O)CCCCCCCN(CCCCCCCC(=O)OC(CCCCCCCC)CCCCCCCC)C(CO)CO [Compound 156, Heptadecan-9-yl 8-((1,3-dihydroxypropan-2-yl)(8-(nonyloxy)-8-oxooctyl)amino)octanoate]
14 | 0.096 | – | <1 | <1 | – | CCCCCCCCCOC(=O)CCCCCCCN(CCCCCCCC(=O)OC(CCCCCCCC)CCCCCCCC)C(C)CO (stereo not drawn) [Compound 157, Heptadecan-9-yl 8-((1-hydroxypropan-2-yl)(8-(nonyloxy)-8-oxooctyl)amino)octanoate]
15 | 0.18 | 99.04 | – | – | – | CCCCCCCCCOC(=O)CCCCCCCN(CCCCCCCC(=O)OC(CCCCCCCC)CCCCCCCC)CCCNc1c(N(C)C)c(=O)c1=O [Compound 169, Heptadecan-9-yl 8-((3-((2-(dimethylamino)-3,4-dioxocyclobut-1-en-1-yl)amino)propyl)(8-(nonyloxy)-8-oxooctyl)amino)octanoate]
16 | 0.12 | 98.24 | – | – | – | CCCCCCCCCOC(=O)CCCCCCCN(CCCCCCCC(=O)OC(CCCCCCCC)CCCCCCCC)CCCN/C(=C/[N+](=O)[O-])NC [Compound 170, Heptadecan-9-yl (E)-8-((3-((1-(methylamino)-2-nitrovinyl)amino)propyl)(8-(nonyloxy)-8-oxooctyl)amino)octanoate]
17 | 0.12 | 98.52 | – | – | – | CCCCCCCCCOC(=O)CCCCCCCN(CCCCCCCC(=O)OC(CCCCCCCC)CCCCCCCC)CCCN1C(=O)CNC1=O [Compound 174, Heptadecan-9-yl 8-((3-(2,5-dioxoimidazolidin-1-yl)propyl)(8-(nonyloxy)-8-oxooctyl)amino)octanoate]
